Laboratory results taken from patent US12336991B2, “Factor XIIA inhibitors” (UNIVERSITY OF LEEDS, priority 2018, dated 2025).

What was measured:
Type in all cases: biochemical
FXIIa = target: T1, FXIIa (Homo sapiens, UniProt P00748); assay: Determination of Factor XIIa inhibition, chromogenic substrate S-2302 assay; conditions: human FXIIa alpha
T1 sequence (P00748 373-615 limits assumed): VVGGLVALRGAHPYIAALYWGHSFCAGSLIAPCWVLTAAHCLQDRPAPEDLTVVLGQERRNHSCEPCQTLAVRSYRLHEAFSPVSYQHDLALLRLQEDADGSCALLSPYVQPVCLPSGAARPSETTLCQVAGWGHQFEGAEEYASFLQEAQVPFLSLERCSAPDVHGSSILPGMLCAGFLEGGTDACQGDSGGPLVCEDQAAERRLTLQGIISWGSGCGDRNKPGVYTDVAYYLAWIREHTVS
T1 sequence (P00748 20-372 partner limits assumed): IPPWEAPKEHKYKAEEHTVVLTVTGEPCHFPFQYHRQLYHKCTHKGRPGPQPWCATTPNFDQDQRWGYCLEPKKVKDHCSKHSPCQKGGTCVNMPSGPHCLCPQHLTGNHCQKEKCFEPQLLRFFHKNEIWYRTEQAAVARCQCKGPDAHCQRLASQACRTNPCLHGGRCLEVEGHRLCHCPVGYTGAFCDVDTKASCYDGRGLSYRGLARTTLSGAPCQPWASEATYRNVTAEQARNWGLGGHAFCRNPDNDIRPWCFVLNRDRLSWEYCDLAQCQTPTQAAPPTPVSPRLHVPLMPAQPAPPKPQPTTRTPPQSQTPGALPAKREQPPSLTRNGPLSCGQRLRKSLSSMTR
How it was run: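 FXIIa (10 nM) preincubated with compound 10 min at 37° C. in 50 mM Tris, 137 mM NaCl pH 7.4, 5% DMSO, top concentration 500 μM, then S-2302 added ([…]). Absorbance at 405 nm read kinetically for 3 h; IC50 from initial rates, converted to Ki by Cheng-Prusoff.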

thrombin = target: T2, thrombin (Homo sapiens, UniProt P00734); assay: Determination of selectivity: thrombin inhibition, chromogenic substrate GPR assay; conditions: fold selectivity for FXIIa over thrombin
T2 construct: FXa (5 nM) and thrombin (5 nM)
How it was run: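 Thrombin (5 nM) preincubated with compound 10 min at 37 °C in 50 mM Tris, 137 mM NaCl, pH 7.4, 5% DMSO, then GPR substrate ([…]) added. Absorbance at 405 nm read kinetically for 3 h; IC50 from initial rates, converted to Ki via Ki=IC50/(1+[S]/Km).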

FXa = FXa (Homo sapiens, UniProt P00742); assay: Determination of selectivity: FXa inhibition, chromogenic substrate S2765 assay; conditions: fold selectivity for FXIIa over FXa
How it was run: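 Human FXa (5 nM) preincubated with compound (top 500 μM, 5% DMSO) 10 min at 37 °C in 50 mM Tris, 137 mM NaCl pH 7.4, then S2765 ([…]) added; A405 kinetics over 3 h at 37 °C. IC50 from initial rates, converted to Ki via Cheng-Prusoff.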

FXa, sequence (P00742 235-488 limits assumed): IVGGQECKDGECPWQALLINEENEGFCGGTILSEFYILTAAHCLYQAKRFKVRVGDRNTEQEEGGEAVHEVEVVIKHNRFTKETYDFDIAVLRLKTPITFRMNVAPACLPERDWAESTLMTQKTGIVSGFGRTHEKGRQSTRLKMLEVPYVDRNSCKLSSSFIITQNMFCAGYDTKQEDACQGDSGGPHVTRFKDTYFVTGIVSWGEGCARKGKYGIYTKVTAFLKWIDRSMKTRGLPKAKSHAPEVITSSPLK
FXa, sequence (P00742 41-179 partner limits assumed): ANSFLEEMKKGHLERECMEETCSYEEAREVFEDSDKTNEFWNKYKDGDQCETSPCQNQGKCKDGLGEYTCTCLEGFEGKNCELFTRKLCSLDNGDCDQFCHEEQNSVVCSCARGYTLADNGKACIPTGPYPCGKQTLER

Compound | Ki (FXIIa) | Thrombin (human)/FXIIa alpha (human) (thrombin) | FXa (human)/FXIIa alpha (human) (FXa)
N#C[C@@H]1C[C@@H](C(=O)NCc2ccc(CN)cc2)N(C(=O)[C@H](N)CCc2ccccc2)C1 [Example M05091, (2S,4R)-1-((R)-2-Amino-4-phenyl-butyryl)-4-cyano-pyrrolidine-2-carboxylic acid 4-aminomethyl-benzylamide] | > 2 µM | + (fold selectivity values less than 10) | ∘∘
COc1ccc(C[C@@H]2C[C@@H](C(=O)NCc3ccc4c(c3)nnn4C)N(C(=O)[C@H]3CC(c4cn[nH]c4)CN3)C2)cc1 (stereo partly drawn) [Example M05454] | > 2 µM | ++ (fold selectivity value of 10 to 100) | ∘∘
COc1ccc(C[C@@H]2C[C@@H](C(=O)NCc3ccc4c(c3)nnn4C)N(C(=O)[C@H](N)CCC(=O)N3C4CCC3COC4)C2)cc1 [Example M05411] | 0.2 to 2 µM | +++ (fold selectivity values greater than 100) | ∘∘∘
COc1ccc(C[C@@H]2C[C@@H](C(=O)NCc3cccs3)N(C(=O)[C@H](N)CCC(=O)N3CCCC3)C2)cc1 [Example M00972] | 0.2 to 2 µM | ++ (fold selectivity value of 10 to 100) | ∘∘
COc1ccc(C[C@@H]2C[C@@H](C(=O)NCc3ccc4c(c3)nnn4C)N(C(=O)[C@H]3CC(c4ccccc4OC)CN3)C2)cc1 (stereo partly drawn) [Example M05378] | 0.2 to 2 µM | ++ (fold selectivity value of 10 to 100) | ∘∘∘
COc1ccc(C[C@@H]2C[C@@H](C(=O)NCc3ccc4c(c3)nnn4C)N(C(=O)[C@H]3CC(c4ccc(C(F)(F)F)cc4)CN3)C2)cc1 (stereo partly drawn) [Example M05345] | > 2 µM | ++ (fold selectivity value of 10 to 100) | ∘∘
Cn1nnc2cc(CNC(=O)[C@@H]3C[C@@H](Cc4ccncc4)CN3C(=O)[C@@H](CCC(=O)N3CCCC3)NCCC(F)(F)F)ccc21 [Example M05262] | > 2 µM | ++ (fold selectivity value of 10 to 100) | ∘∘
COc1ccc(C[C@@H]2C[C@@H](C(=O)NCc3ccc4c(c3)nnn4C)N(C(=O)[C@H]3C[C@@H](c4ccccc4)CN3C)C2)cc1 [Example M05389, (2S,4R)-4-(4-Methoxy-benzyl)-1-((2R,4S)-1-methyl-4-phenyl-pyrrolidine-2-carbonyl)-pyrrolidine-2-carboxylic acid (1-methyl-1H-benzotriazol-5-ylmethyl)-amide] | 0.2 to 2 µM | +++ (fold selectivity values greater than 100) | ∘∘∘
COc1ccc(C[C@@H]2C[C@@H](C(=O)NCc3cc4ccncc4[nH]3)N(C(=O)[C@H](N)CCc3ccccc3)C2)cc1 [Example M00954] | < 0.2 µM | + (fold selectivity values less than 10) | ∘∘∘
Cn1nnc2cc(CNC(=O)[C@@H]3C[C@H](NCCc4ccccc4)CN3C(=O)[C@H](N)CCc3ccccc3)ccc21 [Example M05205] | > 2 µM | ++ (fold selectivity value of 10 to 100) | ∘∘
Cn1nnc2cc(CNC(=O)[C@@H]3C[C@@H](Cc4ccc(Br)cc4)CN3C(=O)[C@H]3C[C@@H](c4ccccc4)CN3)ccc21 [Example M05342] | 0.2 to 2 µM | ++ (fold selectivity value of 10 to 100) | ∘∘∘
Cn1nnc2cc(CNC(=O)[C@@H]3C[C@@H](Cc4ccc(F)cc4)CN3C(=O)C3C[C@@H](c4ccccc4)CN3)ccc21 (stereo partly drawn) [Example M05324] | > 2 µM | ++ (fold selectivity value of 10 to 100) | ∘∘
Cn1nnc2cc(CNC(=O)[C@@H]3C[C@@H](Cc4ccc(S(C)(=O)=O)cc4)CN3C(=O)[C@H](N)CCC(=O)N3CCCC3)ccc21 [Example M05384] | 0.2 to 2 µM | +++ (fold selectivity values greater than 100) | ∘∘∘
Cn1nnc2cc(CNC(=O)[C@@H]3C[C@@H](Cc4ccc(-c5cn[nH]c5)cc4)CN3C(=O)[C@H]3C[C@@H](c4ccccc4)CN3)ccc21 [Example M05364] | > 2 µM | ++ (fold selectivity value of 10 to 100) | ∘∘
COc1ccc(C[C@@H]2C[C@@H](C(=O)NCc3ccc4c(c3)nnn4C)N(C(=O)[C@H](N)CCC(=O)N3CCCC3C(F)(F)F)C2)cc1 (stereo partly drawn) [Example M05392] | < 0.2 µM | +++ (fold selectivity values greater than 100) | ∘∘∘
Cn1nnc2cc(CNC(=O)[C@@H]3C[C@@H](Cc4ccncc4)CN3C(=O)[C@@H](CCC(=O)N3CCCC3)NCC(F)F)ccc21 [Example M05269] | > 2 µM | ++ (fold selectivity value of 10 to 100) | ∘∘
Cn1nnc2cc(CNC(=O)[C@@H]3C[C@@H](Cc4cccc(Cl)c4)CN3C(=O)[C@H](N)CCC(=O)N3CCCC3)ccc21 [Example M05190] | < 0.2 µM | +++ (fold selectivity values greater than 100) | ∘∘∘
COc1ccc(C[C@@H]2C[C@@H](C(=O)NCc3ccc4c(c3)nnn4C)N(C(=O)[C@H](N)CCC(=O)N3[C@H]4CC[C@@H]3CC4)C2)cc1 [Example M05394] | 0.2 to 2 µM | +++ (fold selectivity values greater than 100) | ∘∘∘
CC(C)Oc1ccc(CC2C[C@@H](C(=O)NCc3ccc4c(c3)nnn4C)N(C(=O)[C@H]3C[C@@H](c4ccccc4)CN3)C2)cc1 (stereo partly drawn) [Example M05349] | 0.2 to 2 µM | ++ (fold selectivity value of 10 to 100) | ∘∘
COc1ccc(C[C@@H]2C[C@@H](C(=O)NCc3ccc4c(C)nn(C)c4c3)N(C(=O)[C@H](N)CCC(=O)N3CCCC3)C2)cc1 [Example M05448] | 0.2 to 2 µM | +++ (fold selectivity values greater than 100) | ∘∘∘
Cn1nnc2cc(CNC(=O)[C@@H]3C[C@@H](Cc4ccc(Br)cc4)CN3C(=O)[C@H](N)CCC(=O)N3CCCC3)ccc21 [Example M05326] | < 0.2 µM | +++ (fold selectivity values greater than 100) | ∘∘∘
Cn1cc(-c2cccc(C[C@@H]3C[C@@H](C(=O)NCc4ccc5c(c4)nnn5C)N(C(=O)[C@H](N)CCC(=O)N4CCCC4)C3)c2)cn1 [Example M05330] | 0.2 to 2 µM | +++ (fold selectivity values greater than 100) | ∘∘∘
Cn1nnc2cc(CNC(=O)[C@@H]3CCCN3C(=O)[C@H](N)CCC(=O)N3CCCC3)ccc21 [Example M05308] | > 2 µM | ++ (fold selectivity value of 10 to 100) | ∘∘
COc1ccc(C[C@@H]2C[C@@H](C(=O)NCc3cc4cnccc4[nH]3)N(C(=O)C3NCCc4cc(OC)ccc43)C2)cc1 (single isomer, unassigned) [Example M00963] | < 0.2 µM | +++ (fold selectivity values greater than 100) | ∘∘∘
COc1ccc(C[C@@H]2C[C@@H](C(=O)NCc3ccc4c(c3)nnn4C)N(C(=O)[C@H](N)CCC(=O)N3CCNC[C@@H]3C)C2)cc1 [Example M05417, (2S,4R)-1-[(R)-2-amino-5-((S)-2-methyl-piperazin-1-yl)-5-oxo-pentanoyl]-4-(4-methoxy-benzyl)-pyrrolidine-2-carboxylic acid (1-methyl-1H-benzotriazol-5-ylmethyl)-amide] | 0.2 to 2 µM | +++ (fold selectivity values greater than 100) | ∘∘∘
Cn1nnc2cc(CNC(=O)[C@@H]3C[C@@H](Cc4ccncc4)CN3C(=O)[C@@H](CCC(=O)N3CCCC3)NCC(F)(F)F)ccc21 [Example M05271] | > 2 µM | ++ (fold selectivity value of 10 to 100) | ∘∘
